Results: publication PMC8597055, “Exploration of Pyrazolo[1,5‐a]pyrimidines as Membrane‐Bound Pyrophosphatase Inhibitors” (Chemmedchem, 2021)
Where “and” joins values, the source holds several entries; their conditions need not be identical. Identical values can stand only once. Like-named read-outs stand apart in the source and are kept apart here.

Columns and labels:
[1] = target: T1, Thermotoga maritima mPPase (TmPPase) (Thermotoga maritima, UniProt Q9S5X0); assay: TmPPase inhibition assay (96-well); assay type: biochemical; details: for IC50: TmPPase inhibition, NA = IC50 not assigned
Source text: We started from the previously identified 5‐arylisoxazole‐3‐carboxylate core present in 2–5 (Figure 1, highlighted in blue). Using KNIME,[30] we did a substructure search for commercial analogues in the ZINC12 database[31] […] Therefore, we manually picked compounds from a diverse collection provided by a single vendor (Ambinter, 174 matches for the substructure query). Out of the search results, we selected fifteen isoxazoles for testing in vitro. For all compounds in this manuscript, we tested activity using a 96‐well based assay that detects the inhibition of TmPPase.[22, 23, 24]
(§1) All commercially obtained compounds had purities >90 % as specified by the vendor. Synthesized compounds were >95 % pure as determined by LC–MS and characterized by HRMS. The inhibition assay was carried out with purified TmPPase as previously reported.[22, 23, 24] The best hits 17 a, 19 a, and 20 a, were validated using eight compound concentrations in triplicate. Further hit validation was done against the purified mPPase from P. falciparum (PfPPase‐VP1) expressed in baculovirus‐infected insect cells (expression, purification and further enzyme analysis will be described in more detail elsewhere). 4 μL of the purified PfPPase‐VP1 (2.0 mg/mL) was reactivated in 96 μL of reactivation buffer, i. e. 20 mM 2‐(N‐morpholino)ethanesulfonic acid (MES) pH 6.5, 3.5 % (v/v) glycerol, 2 mM dithiothreitol (DTT) and 12 mg/mL L‐α‐phosphatidylcholine from soybean. For each tube strip, 3 μL of the reactivated PfPPase‐VP1 was added into 12 μL of reaction buffer (200 mM Tris‐Cl pH 8.0, 8.0 mM MgCl2, 333 mM KCl, 67 mM NaCl) and 25 μL of inhibitor solution. The reaction mixtures were incubated at 50 °C for 5 min and the assay was started with the addition of 10 μL of 2 mM sodium pyrophosphate and further incubation at 50 °C for 45 min. The reaction termination and colour development were done as earlier described.[22, 23, 24]
6 IC50 plots from the TmPPase inhibition assay
The blue and black curves refer to compounds presented already in the main article and only shown in the Supporting Information, respectively. IC50, half maximal inhibitory concentration; CI95%, half maximal inhibitory concentration expressed as a 95% confidence interval (given in square brackets); […]
IC50 determinations were done using R 3.6.1[2] and the n-parameter logistic regression (nplr) package[3] version 0.1.7. In this package, the weighted nplr, given x (compound concentrations) and y values (activity) is calculated using Richard’s equation (eq 1) where B and T are the bottom and top asymptotes, respectively; b and xmid are the Hill slope and the x coordinate at inflexion point, respectively; and s is an asymmetric coefficient. The model parameters were simultaneously optimized using non-linear minimization, using a sum of squared errors.[4] The standard error of the model, defined as the squared error on the fitted values, is used to estimate a confidence interval at 95% on the predicted IC50 values.

[2] = target: purified mPPase from P. falciparum (PfPPase-VP1) (Plasmodium falciparum, UniProt Q8IKR1); assay: PfPPase-VP1 inhibition assay; assay type: biochemical; details: three replicates
Protocol: Further hit validation was done against the purified mPPase from P. falciparum (PfPPase‐VP1) expressed in baculovirus‐infected insect cells. […] Overall, these compounds have higher IC50 values for PfPPase‐VP1 than for TmPPase.
as §1

[3] = tested on: Plasmodium falciparum parasite strain 3D7; assay: P. falciparum survival (growth) assay in erythrocyte culture, SYBR Green I; assay type: cell-based; details: 72 h, strain 3D7 in human erythrocytes
Protocol: Plasmodium falciparum parasite strain 3D7 was used for testing the antiplasmodial activity of the test compounds. The parasite was maintained in culture as described previously.[37] Briefly, parasites were cultured in O+ human erythrocytes at 5 % haematocrit in RPMI‐1640 medium supplemented with 0.5 % Albumax II (Gibco, Carlsbad, CA, USA), 200 μM hypoxanthine (Sigma, St. Louis, MO, USA) and 20 μg/mL gentamycin (Gibco). Parasites were synchronized with the sorbitol method as described.[38] Test compounds were dissolved in DMSO to make a stock solution of 10 mM or 50 mM. Two‐fold serial dilutions of the test compounds were made in the culture medium to cover either the range of 100 μM–100 nM or 400 μM–390 nM. 50 μL of each dilution were mixed in 96‐well plate with 150 μL of 2 % haematocrit of 0.5 % parasitemia (ring stage). Compound dilutions were also mixed with 150 μL of 2 % haematocrit of uninfected erythrocytes to serve as baselines for the activity of the coloured compounds. DMSO concentration in the highest compound concentration was 0.8 %. After 72 h incubation at 37 °C, the parasite growth was quantified using fluorescent SYBR Green I®‐based assay as described.[39] The half‐maximal inhibitory concentration (IC50) of the test compounds was assessed using the non‐linear regression fit model in Prism 7 (GraphPad Software, San Diego, CA, USA). The potent anti‐malarial drug, artemisinin, was used in parallel as a positive control. Each concentration of the test compounds was tested in duplicate and the assay was repeated three times. The mean and standard deviation of the three repeats were used to calculate the IC50.

[4] = Colloidal aggregation by nephelometry under TmPPase assay conditions; assay type: physicochemical; details: for concentration of aggregate formation: TmPPase assay conditions
Protocol: In order to rule out a cause of false positives, colloidal aggregation in the TmPPase model assay was evaluated for compounds 17 a, 19 a and 20 a at six concentrations (100 μM, 50 μM, 20 μM, 10 μM, 1 μM, and 0.1 μM) using the assay conditions (Figure S3).
3 Aggregation data for 17a, 19a and 20a (Figure S3)
Potential colloidal aggregation in the TmPPase model system was studied by nephelometric methods using Nepheloskan Ascent® (Labsystems, Finland). The original assay conditions were simulated, and the light scattering of potential aggregates in the mixture was studied at six concentrations (100 µM, 50 µM, 20 µM, 10 µM, 1 µM and 0.1 µM). Aggregation of the blank and compounds 17a, 19a and 20a was measured as quadruplicates from one independent experiment at three different voltages (300 V, 400 V and 500 V) at room temperature. […]
values at 10 µM, 1 µM and 0.1 µM were similar to those observed by the blank, indicating merely […]
Figure S3. Aggregation data for compounds 17a, 19a and 20a. The data, measured in relative nephelometric units (RNU), is shown as the mean ± SD and normalized to the blank.
(1 picture or pasted object on this page, not shown here)

[5] = target: T1, Thermotoga maritima mPPase (TmPPase); set-up: method as in PMID 31131322, PMID 32292570; details: previously reported inhibitors, read-out: IC50 [CI95%]; cited from earlier work
[6] = tested on: Plasmodium falciparum parasite strain 3D7; set-up: method as in PMID 32292570; details: cited from earlier work
[7] = purified PfPPase-VP1, 50 °C, read-out: IC50
[8] = Plasmodium falciparum, 3D7, Erythrocyte
[9] = IC50, purified PfPPase-VP1, 50 °C

T1 sequence (Q9S5X0 whole entry): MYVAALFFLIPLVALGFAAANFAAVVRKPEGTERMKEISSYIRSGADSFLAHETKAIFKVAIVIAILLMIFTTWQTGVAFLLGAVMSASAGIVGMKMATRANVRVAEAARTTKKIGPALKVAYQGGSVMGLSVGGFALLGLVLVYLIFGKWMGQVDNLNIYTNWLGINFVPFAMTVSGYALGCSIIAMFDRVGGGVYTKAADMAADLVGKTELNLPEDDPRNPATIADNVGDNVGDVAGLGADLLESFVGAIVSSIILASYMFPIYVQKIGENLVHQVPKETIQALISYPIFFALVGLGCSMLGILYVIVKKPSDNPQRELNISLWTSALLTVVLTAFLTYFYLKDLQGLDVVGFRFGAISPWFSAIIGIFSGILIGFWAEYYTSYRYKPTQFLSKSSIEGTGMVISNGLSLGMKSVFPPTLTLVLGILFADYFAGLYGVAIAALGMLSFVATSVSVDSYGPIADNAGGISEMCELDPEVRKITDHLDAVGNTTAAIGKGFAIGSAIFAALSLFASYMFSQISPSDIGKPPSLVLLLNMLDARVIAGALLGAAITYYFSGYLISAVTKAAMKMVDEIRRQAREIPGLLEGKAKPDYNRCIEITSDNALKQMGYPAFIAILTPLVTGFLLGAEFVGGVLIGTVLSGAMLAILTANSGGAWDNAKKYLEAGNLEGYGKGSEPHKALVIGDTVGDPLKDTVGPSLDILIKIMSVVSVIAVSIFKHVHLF
purified mPPase from P. falciparum (PfPPase-VP1), sequence (Q8IKR1 entry or part of it): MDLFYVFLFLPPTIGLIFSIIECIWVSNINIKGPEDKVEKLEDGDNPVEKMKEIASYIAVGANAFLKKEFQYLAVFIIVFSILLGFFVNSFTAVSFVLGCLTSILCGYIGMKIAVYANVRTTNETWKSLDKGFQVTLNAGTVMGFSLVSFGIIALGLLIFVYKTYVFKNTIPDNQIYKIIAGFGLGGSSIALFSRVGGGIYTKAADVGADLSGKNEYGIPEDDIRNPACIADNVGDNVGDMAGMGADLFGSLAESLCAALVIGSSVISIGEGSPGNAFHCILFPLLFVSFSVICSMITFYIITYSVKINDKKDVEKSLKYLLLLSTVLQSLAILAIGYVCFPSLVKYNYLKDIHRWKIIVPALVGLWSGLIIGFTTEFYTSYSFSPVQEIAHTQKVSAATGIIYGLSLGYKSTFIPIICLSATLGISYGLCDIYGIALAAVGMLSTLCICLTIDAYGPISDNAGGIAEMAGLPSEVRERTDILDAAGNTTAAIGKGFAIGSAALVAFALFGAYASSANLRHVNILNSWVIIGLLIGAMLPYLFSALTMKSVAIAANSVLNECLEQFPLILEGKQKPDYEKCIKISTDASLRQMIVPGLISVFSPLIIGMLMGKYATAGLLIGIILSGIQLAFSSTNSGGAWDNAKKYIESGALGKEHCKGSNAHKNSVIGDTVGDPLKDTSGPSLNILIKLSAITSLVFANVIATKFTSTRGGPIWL

In the case of `Cc1cc(C)cc(-c2cc(C(=O)Oc3ccccc3Br)nc3cc(Br)nn23)c1` [17 a, 2‐Bromophenyl 2‐bromo‐7‐(3,5‐dimethylphenyl)pyrazolo[1,5‐a]pyrimidine‐5‐carboxylate], the IC50 ([1]; read-out: IC50 [CI95%]) is reported as 14 µM, the “fold loss in activity compared to 2” value ([1]; TmPPase, 17 a versus 2) is reported as 2 fold and the IC50 [2, 7] is reported as 58 µM and 57.7 µM. The IC50 [3, 8] was 31 µM, the IC50 [3] was 30.6 µM and the “concentration of aggregate formation” value ([4]; six concentrations 100–0.1 μM) was “above 20 μM”. For the same compound, the colloidal aggregation ([4]; at 10 µM, 1 µM and 0.1 µM) was “negligible/no detectable aggregation” and the colloidal aggregation ([4]; at 100 µM, 50 µM and 20 µM) was “aggregate formation”.

With `C=Cc1cc2nc(C(=O)O)cc(-c3cc(C)cc(C)c3)n2n1` [19 a, 7‐(3,5‐Dimethylphenyl)‐2‐vinylpyrazolo[1,5‐a]pyrimidine‐5‐carboxylic acid] the IC50 ([1]; IC50 [CI95%]) was 14 µM, the IC50 [2, 9] was 130 µM and the colloidal aggregation ([4]; six concentrations 100–0.1 μM) was “no detectable aggregation”.

For `C=Cc1cc2nc(C(=O)Oc3ccccc3Br)cc(-c3cc(C)cc(C)c3)n2n1` [20 a, 2‐Bromophenyl 7‐(3,5‐dimethylphenyl)‐2‐vinylpyrazolo[1,5‐a]pyrimidine‐5‐carboxylate], the IC50 ([1]; IC50 [CI95%]) was 18 µM, the IC50 [2, 9] was 74 µM and the “concentration of aggregate formation” value ([4]; six concentrations 100–0.1 μM) was “above 20 μM”. For the same compound, the colloidal aggregation ([4]; at 10 µM, 1 µM and 0.1 µM) was “negligible/no detectable aggregation” and the colloidal aggregation ([4]; at 100 µM, 50 µM and 20 µM) was “aggregate formation”.

For `Nc1nc2ccc(CNC(=O)c3cc4ccccc4[nH]3)cc2s1` [compound 1], the IC50 [5] is listed as 2.7 µM.

For `Cc1cc(C)cc(-c2cc(C(=O)Oc3ccccc3Br)no2)c1` [compound 2], the IC50 [5] is listed as 6.9 µM and the “activity ex vivo against P. falciparum” value [6] is listed as “retained activity”.

For `Cc1cccc(-c2cc(C(=O)Oc3ccccc3Br)no2)c1` [compound 3], the IC50 [5] is listed as 6.1 µM.

For `CC(C)(C)c1cccc(-c2cc(C(=O)Oc3ccccc3Br)no2)c1` [compound 4], the IC50 [5] is listed as 6.7 µM.

For `CCOC(=O)c1cc(-c2ccc(OC)c(S(=O)(=O)Nc3ccc4c(c3)OCO4)c2)on1` [compound 5], the IC50 [5] is given as 36 µM.

In the case of `COc1cc(C2c3c(-c4cc(Cl)c(C)cc4O)n[nH]c3C(=O)N2Cc2ccccc2)ccc1O` (centres unmarked) [compound 12], the IC50 ([1]; read-out: IC50 [CI95%]) is reported as < 25 µM and 25 µM, the IC50 ([2]; purified PfPPase-VP1, 50 °C) is reported as “comparably weak” and the IC50 [2, 7] is reported as 180 µM. It also gave an IC50 [3, 8] of 3.6 µM.
